Experimental data as given in patent publication US6737383B1, “Herbicidal oxadiazolidines” (priority 1999, dated 2004).

Key:
[1] = test system: sugar beet; assay: Test B pre/postemergence sugar beet; type: in vivo, Beta vulgaris
Summary of the method: (§1)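 Response is a visual 0-to-10 score relative to untreated plants, where 0 means no effect and 10 means complete control, taken twelve to sixteen days after application. Treatments went onto soil at planting and onto foliage of 1- to 4-leaf plants, using a surfactant-containing non-phytotoxic solvent.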

[2] = test system: giant foxtail; assay: Test B pre/postemergence giant foxtail; type: in vivo, Setaria faberii
Summary of the method: as §1

[3] = test system: cocklebur; assay: Test B pre/postemergence cocklebur; type: in vivo, Xanthium strumarium
Summary of the method: as §1

[4] = test system: pigweed; assay: Test B pre/postemergence pigweed; type: in vivo, Amaranthus retroflexus
Summary of the method: as §1

[5] = test system: wild oat; assay: Test B pre/postemergence wild oat; type: in vivo, Avena fatua
Summary of the method: as §1

[6] = test system: morningglory; assay: Test B pre/postemergence morningglory; type: in vivo, Ipomoea hederacea
Summary of the method: as §1

[7] = test system: blackgrass; assay: Test B pre/postemergence blackgrass; type: in vivo, Alopecurus myosuroides
Summary of the method: as §1

[8] = test system: duck salad; assay: Test B flood test duck salad; type: in vivo, Heteranthera limosa
Summary of the method: (§2)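 Plants were grown to the 2-leaf stage before treatment with test chemical, then held in a greenhouse for twelve to sixteen days. Injury was visually rated against untreated controls on a 0–10 scale, where 0 is no effect and 10 is complete control.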

[9] = test system: smallflower flatsedge; assay: Test B flood test smallflower flatsedge; type: in vivo, Cyperus difformis
Summary of the method: as §2

[10] = test system: velvetleaf; assay: Test B pre/postemergence velvetleaf; type: in vivo, Abutilon theophrasti
Summary of the method: as §1

[11] = test system: purple nutsedge; assay: Test B pre/postemergence purple nutsedge; type: in vivo, Cyperus rotundus
Summary of the method: as §1

[12] = test system: wheat; assay: Test B pre/postemergence wheat; type: in vivo, Triticum aestivum
Summary of the method: as §1

[13] = test system: soybean; assay: Test B pre/postemergence soybean; type: in vivo, Glycine max
Summary of the method: as §1

[14] = test system: rice; assay: Test B flood test rice; type: in vivo, Oryza sativa
Summary of the method: as §2

[15] = test system: rape; assay: Test B pre/postemergence rape; type: in vivo, Brassica napus
Summary of the method: as §1

[16] = test system: bamyardgrass; assay: Test B flood test barnyardgrass; type: in vivo, Echinochloa crus-galli
Summary of the method: as §2

[17] = Postemergence, Rate 31 g/ha, visual rating, scale 0 to 10 (0 no effect, 10 complete control)
[18] = Preemergence, Rate 31 g/ha, visual rating, scale 0 to 10 (0 no effect, 10 complete control)
[19] = Preemergence, Rate 62 g/ha, scale of 0 to 10 where 0 is no effect and 10 is complete control
[20] = Preemergence, Rate 250 g/ha, scale of 0 to 10 where 0 is no effect and 10 is complete control
[21] = Rate 62 g/ha, Postemergence, scale 0 to 10 (0 no effect, 10 complete control)
[22] = Rate 125 g/ha, Postemergence, scale of 0 to 10 where 0 is no effect and 10 is complete control
[23] = Rate 125 g/ha, Preemergence, scale of 0 to 10 where 0 is no effect and 10 is complete control
[24] = Rate 250 g/ha, Postemergence, scale of 0 to 10 where 0 is no effect and 10 is complete control
[25] = Rate 31 g/ha, Pre-emergence section (flood test species), scale 0 to 10
[26] = Rate 62 g/ha, headed Pre-emergence (flood test species), scale 0 to 10 (0 no effect, 10 complete control)
[27] = Rate 125 g/ha, Pre-emergence, flood test species, scale 0 to 10 where 0 is no effect and 10 is complete control
[28] = Rate 250 g/ha, Pre-emergence, flood-test species, scale 0 to 10, 0 is no effect, 10 is complete control

`CC(C)N(C(=O)n1oc(=O)n(CCCCF)c1=O)c1ccc(F)cc1` [Compound 289] was tested, and the “Sugarbeets plant response rating” value [1, 17] was 0, the “Sugarbeets plant response rating” value [1, 18] was 0 and the “Sugarbeets plant response rating” value [1, 19] was 2. The “Sugarbeets plant response rating” value [1, 20] was 8, the “Sugarbeets plant response rating” value [1, 21] was 0 and the “Sugarbeets plant response rating” value [1, 22] was 0. The “Sugarbeets plant response rating” value [1, 23] was 6, the “Plant response rating, Sugarbeets” value [1, 24] was 0 and the “Giant foxtail plant response rating” value [2, 17] was 2. The “Giant foxtail plant response rating” value [2, 18] was 9, the “Giant foxtail plant response rating” value [2, 19] was 10 and the “Giant foxtail plant response rating” value [2, 20] was 10. The “Giant foxtail plant response rating” value [2, 21] was 2, the “Giant foxtail plant response rating” value [2, 22] was 5 and the “Giant foxtail plant response rating” value [2, 23] was 10. For the same molecule, the “Plant response rating, Giant foxtail” value [2, 24] was 7, the “Cocklebur plant response rating” value [3, 17] was 0 and the “Cocklebur plant response rating” value [3, 18] was 0. The “Cocklebur plant response rating” value [3, 19] was 0, the “Cocklebur plant response rating” value [3, 20] was 0 and the “Cocklebur plant response rating” value [3, 21] was 0. The “Cocklebur plant response rating” value [3, 22] was 1, the “Cocklebur plant response rating” value [3, 23] was 0 and the “Plant response rating, Cocklebur” value [3, 24] was 2. For the same molecule, the “Redroot pigweed plant response rating” value [4, 17] was 0, the “Redroot pigweed plant response rating” value [4, 18] was 5 and the “Redroot pigweed plant response rating” value [4, 19] was 5. The “Redroot pigweed plant response rating” value [4, 20] was 8, the “Redroot pigweed plant response rating” value [4, 21] was 0 and the “Redroot pigweed plant response rating” value [4, 22] was 5. The “Redroot pigweed plant response rating” value [4, 23] was 6, the “Plant response rating, Redroot pigweed” value [4, 24] was 7 and the “Wild oats plant response rating” value [5, 17] was 0. The “Wild oats plant response rating” value [5, 18] was 0, the “Wild oats plant response rating” value [5, 19] was 1 and the “Wild oats plant response rating” value [5, 20] was 8. For the same molecule, the “Wild oats plant response rating” value [5, 21] was 0, the “Wild oats plant response rating” value [5, 22] was 3 and the “Plant response rating, Wild oats” value [5, 24] was 3. For the same molecule, the “Morningglory plant response rating” value [6, 17] was 2, the “Morningglory plant response rating” value [6, 18] was 0 and the “Morningglory plant response rating” value [6, 19] was 0. The “Morningglory plant response rating” value [6, 20] was 0, the “Morningglory plant response rating” value [6, 21] was 3 and the “Morningglory plant response rating” value [6, 22] was 6. The “Morningglory plant response rating” value [6, 23] was 0, the “Plant response rating, Morningglory” value [6, 24] was 8 and the “Blackgrass plant response rating” value [7, 17] was 2. The “Blackgrass plant response rating” value [7, 18] was 6, the “Blackgrass plant response rating” value [7, 19] was 8 and the “Blackgrass plant response rating” value [7, 20] was 9. The “Blackgrass plant response rating” value [7, 21] was 5, the “Blackgrass plant response rating” value [7, 22] was 9 and the “Blackgrass plant response rating” value [7, 23] was 9. For the same molecule, the “Plant response rating, Blackgrass” value [7, 24] was 9, the “Ducksalad plant response rating” value [8, 25] was 0 and the “Ducksalad plant response rating” value [8, 26] was 0. For the same molecule, the “Ducksalad plant response rating” value [8, 27] was 0, the “Ducksalad plant response rating” value [8, 28] was 0 and the “S. Flatsedge plant response rating” value [9, 25] was 0. The “S. Flatsedge plant response rating” value [9, 26] was 0, the “S. Flatsedge plant response rating” value [9, 27] was 0 and the “S. Flatsedge plant response rating” value [9, 28] was 0. For the same molecule, the “Velvetleaf plant response rating” value [10, 17] was 0, the “Velvetleaf plant response rating” value [10, 18] was 0 and the “Velvetleaf plant response rating” value [10, 19] was 3. For the same molecule, the “Velvetleaf plant response rating” value [10, 20] was 7, the “Velvetleaf plant response rating” value [10, 21] was 0 and the “Velvetleaf plant response rating” value [10, 22] was 0. The “Velvetleaf plant response rating” value [10, 23] was 6, the “Plant response rating, Velvetleaf” value [10, 24] was 3 and the “Nutsedge plant response rating” value [11, 17] was 0. The “Nutsedge plant response rating” value [11, 18] was 0, the “Nutsedge plant response rating” value [11, 19] was 0 and the “Nutsedge plant response rating” value [11, 20] was 0. For the same molecule, the “Nutsedge plant response rating” value [11, 21] was 0, the “Nutsedge plant response rating” value [11, 22] was 0 and the “Nutsedge plant response rating” value [11, 23] was 0. For the same molecule, the “Plant response rating, Nutsedge” value [11, 24] was 0, the “Wheat plant response rating” value [12, 17] was 0 and the “Wheat plant response rating” value [12, 18] was 0. For the same molecule, the “Wheat plant response rating” value [12, 19] was 0, the “Wheat plant response rating” value [12, 20] was 2 and the “Wheat plant response rating” value [12, 21] was 2. The “Wheat plant response rating” value [12, 22] was 5, the “Wheat plant response rating” value [12, 23] was 2 and the “Plant response rating, Wheat” value [12, 24] was 7. The “Soybean plant response rating” value [13, 17] was 0, the “Soybean plant response rating” value [13, 18] was 0 and the “Soybean plant response rating” value [13, 19] was 0. For the same molecule, the “Soybean plant response rating” value [13, 20] was 0, the “Soybean plant response rating” value [13, 21] was 2 and the “Soybean plant response rating” value [13, 22] was 3. The “Soybean plant response rating” value [13, 23] was 0, the “Plant response rating, Soybean” value [13, 24] was 4 and the “Rice plant response rating” value [14, 25] was 0. For the same molecule, the “Rice plant response rating” value [14, 26] was 0, the “Rice plant response rating” value [14, 27] was 0 and the “Rice plant response rating” value [14, 28] was 1. The “Rape plant response rating” value [15, 17] was 0, the “Rape plant response rating” value [15, 18] was 0 and the “Rape plant response rating” value [15, 19] was 0. The “Rape plant response rating” value [15, 20] was 10, the “Rape plant response rating” value [15, 21] was 0 and the “Rape plant response rating” value [15, 22] was 2. The “Rape plant response rating” value [15, 23] was 8, the “Plant response rating, Rape” value [15, 24] was 2 and the “Barnyardgrass plant response rating” value [16, 25] was 0. For the same molecule, the “Barnyardgrass plant response rating” value [16, 26] was 0, the “Barnyardgrass plant response rating” value [16, 27] was 0 and the “Barnyardgrass plant response rating” value [16, 28] was 3.
